# Assay results reported in US20070219224A1, “Compositions and Methods Relating to Pyrimidine Synthesis Inhibitors” (UAB RESEARCH FOUNDATION, THE, priority 2004, published 2007).
# Marks after values point to notes of the source that are not given here.
# Tests used:
# [1] = tested on: IFN-α, IL-1β, KC, TNF-α in BALF; assay: Measurement of proinflammatory cytokines in BALF (ELISA); assay type: in vivo, BALB/c mice; settings: RSV-infected mice, d2
# Description: Preparation of viral inocula and infection of mice. Preparation of viral stocks and intranasal infection of eight to twelve week-old pathogen-free BALB/c mice of either sex with RSV strain A2 (10^6 PFU in 100 μl) were performed as described in Davis et al., “Nucleotide-mediated inhibition of alveolar fluid clearance in BALB/c mice after respiratory syncytial virus infection,” Am. J. Physiol. Lung Cell Mol. Physiol. 286:L112-L120. (2004). Data for each experimental group was derived from a minimum of 2 independent infections.
# Bronchoalveolar lavage. Bronchoalveolar lavage fluid (BALF) was collected as previously described in Davis et al., (2004), using 1 ml of sterile normal saline for cytokine ELISAs, or 0.3 ml of sterile saline for nucleotide assays. Lavagates were centrifuged to remove cells and supernatants stored at −80° C.
# Systemic inhibition of de novo pyrimidine and purine synthesis. Leflunomide (5-methylisoxazole-4-[4-trifluoromethyl]carboxanilide, 35 mg/kg in distilled water containing 1% methylcellulose) was administered once daily by oral gavage in a volume of 300 μl/mouse for 8 days prior to infection, then throughout the infection period. Vehicle controls were gavaged with an equivalent volume of 1% methylcellulose in distilled water. […].
# Measurement of proinflammatory cytokines in BALF. Cytokine levels were determined using Quantikine M ELISA kits (R & D Systems), in accordance with manufacturer's instructions.
# uninfected BALB/c mice = assay: Alveolar fluid clearance (AFC) in uninfected or mock-infected mice; assay type: in vivo; settings: for effect on AFC in uninfected / normal (mock-infected) mice (in words): leflunomide oral gavage
# Description: Systemic inhibition of de novo pyrimidine and purine synthesis. […] Vehicle controls were gavaged with an equivalent volume of 1% methylcellulose in distilled water. Uridine (1 g/kg in 0.9% NaCl) was administered by i.p. injection every 12 hours in a volume of 100 μl (8). […]
# AFC studies were performed on anesthetized, ventilated BALB/c mice with normal body temperature and blood gases, over a 30 minute period after intratracheal instillation of 0.3 ml of isosmolar NaCl containing 5% fatty acid-free BSA. The number of mice analyzed per group is listed in the relevant bar of each graph.
compound,measurement,setting,value
"Cc1oncc1C(=O)Nc1ccc(C(F)(F)F)cc1 [Leflunomide, 5-methylisoxazole-4-[4-trifluoromethyl]carboxanilide]","BALF proinflammatory cytokine levels (IFN-α, IL-1β, KC, TNF-α) (in words)",[1],significantly reduced
same,"BALF proinflammatory cytokine levels (IFN-α, IL-1β, KC, TNF-α) (in words)",[1]; listed as LEF,significant reduction
same,"IFN-α, mean cytokine concentration in BALF ± SE",[1]; systemic treatment,72 ± 12 pg/mL
same,"IL-1β, mean cytokine concentration in BALF ± SE",[1]; systemic treatment,20 ± 8 pg/mL
same,"KC, mean cytokine concentration in BALF ± SE",[1]; systemic treatment,425 ± 58 pg/mL
same,"TNF-α, mean cytokine concentration in BALF ± SE",[1]; systemic treatment,0*** pg/ml
same,effect on AFC in uninfected / normal (mock-infected) mice (in words),uninfected BALB/c mice,no detrimental effect on AFC
same,effect on AFC in uninfected / normal (mock-infected) mice (in words),uninfected BALB/c mice; listed as LEF,no effect on AFC
same,effect on AFC in uninfected / normal (mock-infected) mice (in words),uninfected BALB/c mice; listed as leflunomide,significant inhibition of AFC
same,AFC30BASAL (mean % basal AFC after 30 minutes ± SE),"uninfected BALB/c mice; mock-infected mice, leflunomide 5 mg/kg oral gavage once daily",33.16 ± 2.40 %
same,AFC (mean % AFC ± SE),"uninfected BALB/c mice; uninfected mice, leflunomide-treated",29.98 ± 1.5 %
